Results reported in patent US12077503B2, “Substituted cyclic amides and their use as herbicides” (FMC CORPORATION, priority 2015, dated 2024).
Like-named read-outs stand apart in the source and are kept apart here.

Legend:
Type in all cases: in vivo
[1] = tested on: rice (Oryra sativa); test: Test B flooded paddy test; conditions: Oryza sativa, Flood, 250 g ai/ha, read-out: Rice plant response rating
In short: (§1)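 Visual ratings (0 none to 100 complete control) are relative to untreated plants, taken 13–15 d after treatment in a greenhouse. Test material went straight into floodwater standing 3 cm above the soil, kept constant, on plants at the 2-leaf stage.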

[2] = tested on: sedge, umbrella (small-flower umbrella sedge, Cyperus difformis); test: Test B flooded paddy test; conditions: Cyperus difformis, Flood, 250 g ai/ha, read-out: Sedge, Umbrella plant response rating
In short: as §1

[3] = tested on: barnyardgrass (Echinochloa crus-galli); test: Test B flooded paddy test; conditions: Echinochloa crus-galli, Flood, 250 g ai/ha, read-out: Barnyardgrass plant response rating
In short: as §1

[4] = tested on: ducksalad (Heteranthera limosa); test: Test B flooded paddy test; conditions: Heteranthera limosa, Flood, 250 g ai/ha, read-out: Ducksalad plant response rating
In short: as §1

[5] = tested on: Kochia (Kochia scoparia); test: Test A preemergence; conditions: Bassia scoparia, pre-emergence, 240 h, preemergence; for pest or weed control at 125 g/ha: 125 g ai/ha; for pest or weed control at 500 g/ha: 500 g ai/ha
In short: (§2)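 Visual injury scores from 0, no effect, to 100, complete control, were assigned versus untreated controls roughly 10 d after treatment in the greenhouse. Test chemicals, formulated with surfactant in a non-phytotoxic solvent, were applied to planted seeds as a preemergence soil spray or postemergence to one- to two-leaf plants 2 to 10 cm tall, in loam–sand soil.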

[6] = tested on: pigweed (Amaranthus retroflexus); test: Test A preemergence; conditions: Amaranthus retroflexus, pre-emergence, 240 h, preemergence; for pest or weed control at 125 g/ha: 125 g ai/ha; for pest or weed control at 500 g/ha: 500 g ai/ha
[7] = tested on: barnyardgrass (Echinochloa crus-galli); test: Test A preemergence; conditions: Echinochloa crus-galli, pre-emergence, 240 h, preemergence; for pest or weed control at 125 g/ha: 125 g ai/ha; for pest or weed control at 500 g/ha: 500 g ai/ha
In short: as §2

[8] = tested on: ragweed (common ragweed, Ambrosia elatior); test: Test A preemergence; conditions: Ambrosia artemisiifolia, pre-emergence, 240 h, preemergence; for pest or weed control at 125 g/ha: 125 g ai/ha; for pest or weed control at 500 g/ha: 500 g ai/ha
In short: as §2

[9] = tested on: ryegrass, Italian (Italian ryegrass, Lolium multiflorum); test: Test A preemergence; conditions: Lolium multiflorum, pre-emergence, 240 h, preemergence; for pest or weed control at 125 g/ha: 125 g ai/ha; for pest or weed control at 500 g/ha: 500 g ai/ha
In short: as §2

[10] = tested on: giant foxtail (Setaria faberii); test: Test A preemergence; conditions: Setaria faberi, pre-emergence, 240 h, preemergence; for pest or weed control at 125 g/ha: 125 g ai/ha; for pest or weed control at 500 g/ha: 500 g ai/ha
In short: as §2

[11] = tested on: pigweed (Amaranthus retroflexus); test: Test A postemergence; conditions: Amaranthus retroflexus, post-emergence, 240 h, postemergence; for pest or weed control at 125 g/ha: 125 g ai/ha
In short: as §2

[12] = tested on: wheat (Triticum aestivum); test: Test A postemergence; conditions: Triticum aestivum, post-emergence, 240 h, 125 g ai/ha, postemergence
In short: as §2

[13] = tested on: blackgrass (Alopecurus myosuroides); test: Test A postemergence; conditions: Alopecurus myosuroides, post-emergence, 240 h, postemergence; for pest or weed control at 125 g/ha: 125 g ai/ha
In short: as §2

[14] = tested on: ryegrass, Italian (Italian ryegrass, Lolium multiflorum); test: Test A postemergence; conditions: Lolium multiflorum, post-emergence, 240 h, postemergence; for pest or weed control at 125 g/ha: 125 g ai/ha
In short: as §2

[15] = tested on: giant foxtail (Setaria faberii); test: Test A postemergence; conditions: Setaria faberi, post-emergence, 240 h, postemergence; for pest or weed control at 125 g/ha: 125 g ai/ha
In short: as §2

[16] = scale of 0 to 100 where 0 is no effect and 100 is complete control
[17] = 0 to 100 scale where 0 is no effect and 100 is complete control

## O=C1NC[C@H](c2cccc3c2OC(F)(F)O3)[C@H]1C(=O)Nc1ccccc1F [Compound 754]
[1]; [16]
  pest or weed control at 250 g/ha: 0%
[2]; [16]
  pest or weed control at 250 g/ha: 0%
[3]; [16]
  pest or weed control at 250 g/ha: 0%
[4]; [16]
  pest or weed control at 250 g/ha: 40%
[5]; visual rating after approx. 10 d, 0 to 100 scale where 0 is no effect and 100 is complete control, read-out: Plant response rating, Kochia
  pest or weed control at 125 g/ha: 0%
[5]; 0 to 100 scale, 0 = no effect, 100 = complete control, read-out: Plant response rating, Kochia
  pest or weed control at 500 g/ha: 0%
[6]; visual rating after approx. 10 d, 0 to 100 scale where 0 is no effect and 100 is complete control, read-out: Plant response rating, Pigweed
  pest or weed control at 125 g/ha: 0%
[6]; 0 to 100 scale, 0 = no effect, 100 = complete control, read-out: Plant response rating, Pigweed
  pest or weed control at 500 g/ha: 0%
[7]; visual rating after approx. 10 d, 0 to 100 scale where 0 is no effect and 100 is complete control, read-out: Plant response rating, Barnyardgrass
  pest or weed control at 125 g/ha: 80%
[7]; 0 to 100 scale, 0 = no effect, 100 = complete control, read-out: Plant response rating, Barnyardgrass
  pest or weed control at 500 g/ha: 100%
[8]; visual rating after approx. 10 d, 0 to 100 scale where 0 is no effect and 100 is complete control, read-out: Plant response rating, Ragweed
  pest or weed control at 125 g/ha: 0%
[8]; 0 to 100 scale, 0 = no effect, 100 = complete control, read-out: Plant response rating, Ragweed
  pest or weed control at 500 g/ha: 0%
[9]; visual rating after approx. 10 d, 0 to 100 scale where 0 is no effect and 100 is complete control, read-out: Plant response rating, Ryegrass, Italian
  pest or weed control at 125 g/ha: 0%
[9]; 0 to 100 scale, 0 = no effect, 100 = complete control, read-out: Plant response rating, Ryegrass, Italian
  pest or weed control at 500 g/ha: 0%
[10]; visual rating after approx. 10 d, 0 to 100 scale where 0 is no effect and 100 is complete control, read-out: Plant response rating, Foxtail, Giant
  pest or weed control at 125 g/ha: 70%
[10]; 0 to 100 scale, 0 = no effect, 100 = complete control, read-out: Plant response rating, Foxtail, Giant
  pest or weed control at 500 g/ha: 90%
[11]; visual injury after approximately 10 d, 0 to 100 scale (0 no effect, 100 complete control), read-out: Plant response rating, Pigweed
  pest or weed control at 125 g/ha: 0%
[12]; visual injury after approximately 10 d, 0 to 100 scale (0 no effect, 100 complete control), read-out: Plant response rating, Wheat
  plant injury at 125 g/ha: 0%
[13]; visual injury after approximately 10 d, 0 to 100 scale (0 no effect, 100 complete control), read-out: Plant response rating, Blackgrass
  pest or weed control at 125 g/ha: 0%
[14]; visual injury after approximately 10 d, 0 to 100 scale (0 no effect, 100 complete control), read-out: Plant response rating, Ryegrass, Italian
  pest or weed control at 125 g/ha: 0%
[15]; visual injury after approximately 10 d, 0 to 100 scale (0 no effect, 100 complete control), read-out: Plant response rating, Foxtail, Giant
  pest or weed control at 125 g/ha: 60%

## Cc1cccc([C@H]2CN(C)C(=O)[C@@H]2C(=O)Nc2cccc(F)c2C)c1 [Compound 1233]
[1]; [17]
  pest or weed control at 250 g/ha: 15%
[2]; [17]
  pest or weed control at 250 g/ha: 0%
[3]; [17]
  pest or weed control at 250 g/ha: 80%
[4]; [17]
  pest or weed control at 250 g/ha: 100%
[5]; visual injury rating, 0 to 100 scale where 0 is no effect and 100 is complete control, approximately 10 d, read-out: Kochia plant response rating
  pest or weed control at 125 g/ha: 70%
[5]; 0 to 100 scale where 0 is no effect and 100 is complete control, read-out: Kochia plant response rating
  pest or weed control at 500 g/ha: 70%
[6]; visual injury rating, 0 to 100 scale where 0 is no effect and 100 is complete control, approximately 10 d, read-out: Pigweed plant response rating
  pest or weed control at 125 g/ha: 40%
[6]; 0 to 100 scale where 0 is no effect and 100 is complete control, read-out: Pigweed plant response rating
  pest or weed control at 500 g/ha: 40%
[7]; visual injury rating, 0 to 100 scale where 0 is no effect and 100 is complete control, approximately 10 d, read-out: Barnyardgrass plant response rating
  pest or weed control at 125 g/ha: 90%
[7]; 0 to 100 scale where 0 is no effect and 100 is complete control, read-out: Barnyardgrass plant response rating
  pest or weed control at 500 g/ha: 90%
[8]; visual injury rating, 0 to 100 scale where 0 is no effect and 100 is complete control, approximately 10 d, read-out: Ragweed plant response rating
  pest or weed control at 125 g/ha: 30%
[8]; 0 to 100 scale where 0 is no effect and 100 is complete control, read-out: Ragweed plant response rating
  pest or weed control at 500 g/ha: 50%
[9]; visual injury rating, 0 to 100 scale where 0 is no effect and 100 is complete control, approximately 10 d, read-out: Ryegrass, Italian plant response rating
  pest or weed control at 125 g/ha: 40%
[9]; 0 to 100 scale where 0 is no effect and 100 is complete control, read-out: Ryegrass, Italian plant response rating
  pest or weed control at 500 g/ha: 70%
[10]; visual injury rating, 0 to 100 scale where 0 is no effect and 100 is complete control, approximately 10 d, read-out: Foxtail, Giant plant response rating
  pest or weed control at 125 g/ha: 90%
[10]; 0 to 100 scale where 0 is no effect and 100 is complete control, read-out: Foxtail, Giant plant response rating
  pest or weed control at 500 g/ha: 90%
[11]; visual injury vs untreated controls after approx. 10 d, 0 = no effect, 100 = complete control, read-out: Pigweed plant response rating (0 to 100 scale)
  pest or weed control at 125 g/ha: 0%
[11]; 500 g ai/ha, 0 to 100 scale, 0 is no effect, 100 is complete control, read-out: Pigweed plant response rating
  pest or weed control at 500 g/ha: 20%
[12]; visual injury vs untreated controls after approx. 10 d, 0 = no effect, 100 = complete control, read-out: Wheat plant response rating (0 to 100 scale)
  plant injury at 125 g/ha: 40%
[13]; visual injury vs untreated controls after approx. 10 d, 0 = no effect, 100 = complete control, read-out: Blackgrass plant response rating (0 to 100 scale)
  pest or weed control at 125 g/ha: 0%
[13]; 500 g ai/ha, 0 to 100 scale, 0 is no effect, 100 is complete control, read-out: Blackgrass plant response rating
  pest or weed control at 500 g/ha: 40%
[14]; visual injury vs untreated controls after approx. 10 d, 0 = no effect, 100 = complete control, read-out: Ryegrass, Italian plant response rating (0 to 100 scale)
  pest or weed control at 125 g/ha: 40%
[14]; 500 g ai/ha, 0 to 100 scale, 0 is no effect, 100 is complete control, read-out: Ryegrass, Italian plant response rating
  pest or weed control at 500 g/ha: 50%
[15]; visual injury vs untreated controls after approx. 10 d, 0 = no effect, 100 = complete control, read-out: Foxtail, Giant plant response rating (0 to 100 scale)
  pest or weed control at 125 g/ha: 80%
[15]; 500 g ai/ha, 0 to 100 scale, 0 is no effect, 100 is complete control, read-out: Foxtail, Giant plant response rating
  pest or weed control at 500 g/ha: 90%
